Assay results: article PMC12587545, “Noncytotoxic polymyxin derivatives enhance antibiotic action against multidrug-resistant Gram-negative bacteria” (Antimicrobial Agents and Chemotherapy, 2025)
Several values for one entry are separate records, joined by “and”; a condition that tells them apart may be missing. Equal values may be shown once. Read-outs that look alike come from different tables or passages of the source.

Tests used:
Assay in all cases: Checkerboard assay (antibiotic potentiation)
[1] = tested on: K. pneumoniae; type: cell-based, Klebsiella pneumoniae; conditions: for MICantibiotic + compound: antibiotic MIC with 8 µg/mL (5 µM) compound 1; for MICantibiotic: antibiotic alone; for Potentiation: of antibiotic by 8 µg/mL (5 µM) compound 1
[2] = tested on: E. coli; type: cell-based, Escherichia coli; conditions: for Interpretation: antibiotic + compound 1; for MICantibiotic + compound: antibiotic MIC with 8 µg/mL (5 µM) compound 1; for MICantibiotic: antibiotic alone; for Potentiation: of antibiotic by 8 µg/mL (5 µM) compound 1
[3] = tested on: A. baumannii; type: cell-based, Acinetobacter baumannii
[4] = K. pneumoniae 113250 (colistin-resistant)
[5] = K. pneumoniae 116381, antibiotic + compound 1
[6] = E. coli 94393 (colistin-resistant)
[7] = E. coli 94474 (colistin-resistant)
[8] = A. baumannii 110193, antibiotic + compound 1
[9] = A. baumannii ATCC 17978, 0% FBS, zoliflodacin + compound 1
[10] = A. baumannii ATCC 17978, [Mg2+] 25 mM, zoliflodacin + compound 1
[11] = A. baumannii ATCC 17978, [Mg2+] 0.4–0.5 mM, zoliflodacin + compound 1
[12] = A. baumannii ATCC 17978, antibiotic + compound 1

C[C@@H]1CN2c3c(cc4c(N5C(=O)OC[C@@H]5C)noc4c3F)CC3(C(=O)NC(=O)NC3=O)[C@H]2[C@H](C)O1 [Zoliflodacin]
MICantibiotic + compound [1, 4]: 4 µg/mL
MICantibiotic [1, 4]: 128 µg/mL
Potentiation [1, 4]: 32 fold
FIC index [1, 5]: 0.063
Interpretation [1, 5]: Synergy (FIC indices of ≤0.5 is synergistic)
MICantibiotic + compound ([1]; K. pneumoniae 116381): 0.25 µg/mL
MICantibiotic ([1]; K. pneumoniae 116381): 256 µg/mL
Potentiation ([1]; K. pneumoniae 116381): ≥512-fold
Interpretation [2, 6]: Synergy (FIC indices of ≤0.5 is synergistic)
MICantibiotic + compound [2, 6]: 2 µg/mL
MICantibiotic [2, 6]: 64 µg/mL
Potentiation [2, 6]: 32 fold
Interpretation [2, 7]: Synergy (FIC indices of ≤0.5 is synergistic)
MICantibiotic + compound [2, 7]: 4 µg/mL
MICantibiotic [2, 7]: 64 µg/mL
Potentiation [2, 7]: 16 fold
MICantibiotic + compound [3]: 0.031 µg/mL
Potentiation [3]: ≥128-fold
Interpretation ([3]; A. baumannii 92247 (colistin-resistant), antibiotic + compound 1): Synergy (FIC indices of ≤0.5 is synergistic)
MICantibiotic + compound ([3]; A. baumannii 92247 (colistin-resistant), antibiotic MIC with 4 µg/mL (2 µM) compound 1): 0.25 µg/mL
MICantibiotic ([3]; A. baumannii 92247 (colistin-resistant), antibiotic alone): 4 µg/mL
Potentiation ([3]; A. baumannii 92247 (colistin-resistant), of antibiotic by 4 µg/mL (2 µM) compound 1): ≥16-fold
FIC index [3, 8]: 0.156
Interpretation [3, 8]: Synergy (FIC indices of ≤0.5 is synergistic)
MICantibiotic + compound ([3]; A. baumannii 110193, antibiotic MIC with 4 µg/mL (2 µM) compound 1): 8 µg/mL
MICantibiotic ([3]; A. baumannii 110193, antibiotic alone): 256 µg/mL
Potentiation ([3]; A. baumannii 110193, of antibiotic by 4 µg/mL (2 µM) compound 1): 32 fold
Interpretation ([3]; A. baumannii AB027, antibiotic + compound 1): Synergy (FIC indices of ≤0.5 is synergistic)
MICantibiotic + compound ([3]; A. baumannii AB027, antibiotic MIC with 4 µg/mL (2 µM) compound 1): 0.25 µg/mL
MICantibiotic ([3]; A. baumannii AB027, antibiotic alone): 16 µg/mL
Potentiation ([3]; A. baumannii AB027, of antibiotic by 4 µg/mL (2 µM) compound 1): 64 fold
Interpretation ([3]; A. baumannii AB031, antibiotic + compound 1): Synergy (FIC indices of ≤0.5 is synergistic)
MICantibiotic + compound ([3]; A. baumannii AB031, antibiotic MIC with 4 µg/mL (2 µM) compound 1): 4 µg/mL
MICantibiotic ([3]; A. baumannii AB031, antibiotic alone): 128 µg/mL
Potentiation ([3]; A. baumannii AB031, of antibiotic by 4 µg/mL (2 µM) compound 1): 32 fold
Potentiation ([3]; A. baumannii ATCC 17978, 0% FBS, of zoliflodacin by 4 µg/mL compound 1): ≥128-fold
FIC index [3, 9]: 0.258
Interpretation [3, 9]: Synergy (FIC indices of ≤0.5 is synergistic)
MICantibiotic + compound ([3]; A. baumannii ATCC 17978, 0% FBS, zoliflodacin MIC with 4 µg/mL compound 1): 0.031 µg/mL
MICantibiotic ([3]; A. baumannii ATCC 17978, 0% FBS, zoliflodacin alone): 4 µg/mL
Potentiation ([3]; A. baumannii ATCC 17978, 10% FBS, of zoliflodacin by 4 µg/mL compound 1): 32 fold
Interpretation ([3]; A. baumannii ATCC 17978, 10% FBS, zoliflodacin + compound 1): Synergy (FIC indices of ≤0.5 is synergistic)
MICantibiotic + compound ([3]; A. baumannii ATCC 17978, 10% FBS, zoliflodacin MIC with 4 µg/mL compound 1): 0.5 µg/mL
MICantibiotic ([3]; A. baumannii ATCC 17978, 10% FBS, zoliflodacin alone): 16 µg/mL
Potentiation ([3]; A. baumannii ATCC 17978, 25% FBS, of zoliflodacin by 4 µg/mL compound 1): 8 fold
Interpretation ([3]; A. baumannii ATCC 17978, 25% FBS, zoliflodacin + compound 1): Synergy (FIC indices of ≤0.5 is synergistic)
MICantibiotic + compound ([3]; A. baumannii ATCC 17978, 25% FBS, zoliflodacin MIC with 4 µg/mL compound 1): 2 µg/mL
MICantibiotic ([3]; A. baumannii ATCC 17978, 25% FBS, zoliflodacin alone): 16 µg/mL
Potentiation ([3]; A. baumannii ATCC 17978, 50% FBS, of zoliflodacin by 4 µg/mL compound 1): 2 fold
Interpretation ([3]; A. baumannii ATCC 17978, 50% FBS, zoliflodacin + compound 1): Additive (0.5 < × ≤ 4 is additive)
MICantibiotic + compound ([3]; A. baumannii ATCC 17978, 50% FBS, zoliflodacin MIC with 4 µg/mL compound 1): 32 µg/mL
MICantibiotic ([3]; A. baumannii ATCC 17978, 50% FBS, zoliflodacin alone): 64 µg/mL
Potentiation ([3]; A. baumannii ATCC 17978, [Mg2+] 25 mM, of zoliflodacin by 4 µg/mL compound 1): ≥64-fold
FIC index [3, 10]: x < 0.063
Interpretation [3, 10]: Synergy (FIC indices of ≤0.5 is synergistic)
MICantibiotic + compound ([3]; A. baumannii ATCC 17978, [Mg2+] 25 mM, zoliflodacin MIC with 4 µg/mL compound 1): 4 µg/mL
MICantibiotic ([3]; A. baumannii ATCC 17978, [Mg2+] 25 mM, zoliflodacin alone): >32 µg/mL
Potentiation ([3]; A. baumannii ATCC 17978, [Mg2+] 0.4–0.5 mM, of zoliflodacin by 4 µg/mL compound 1): ≥128-fold
FIC index [3, 11]: 0.258
Interpretation [3, 11]: Synergy (FIC indices of ≤0.5 is synergistic)
MICantibiotic + compound ([3]; A. baumannii ATCC 17978, [Mg2+] 0.4–0.5 mM, zoliflodacin MIC with 4 µg/mL compound 1): 0.031 µg/mL
MICantibiotic ([3]; A. baumannii ATCC 17978, [Mg2+] 0.4–0.5 mM, zoliflodacin alone): 4 µg/mL
FIC index [3, 12]: 0.258
Interpretation [3, 12]: Synergy (FIC indices of ≤0.5 is synergistic)
Interpretation ([3]; A. baumannii ATCC 17978, antibiotic + compound 3): Additive (0.5 < × ≤ 4 is additive)
MICantibiotic + compound ([3]; A. baumannii ATCC 17978, antibiotic MIC with 8 µg/mL (5 µM) compound 3): 2 µg/mL
MICantibiotic ([3]; A. baumannii ATCC 17978, antibiotic alone): 2 µg/mL and 4 µg/mL
Potentiation ([3]; A. baumannii ATCC 17978, of antibiotic by 8 µg/mL (5 µM) compound 3): 1 fold
